These results are taken from patent US20240239775A1, “FXR REGULATOR, PREPARATION METHOD THEREFOR, PHARMACEUTICAL COMPOSITION THEREOF AND USE THEREOF” (QINGDAO RUIJI MEDICAL TECHNOLOGY CO., LTD., priority 2021, published 2024).

The term IC50 denotes the concentration that gives 50% inhibition. Higher therefore signals weaker potency in that assay. In general, melting point refers to the temperature, or range, at which the solid turns liquid.

In one series the target is T1, FXR (Homo sapiens, UniProt Q96RI1).
T1 construct: 5 μL of 20 nM FXR-LBD Complete Coregulator buffer G; purchased ThermoFisher PV4833
T1 sequence (Q96RI1 262-486 limits assumed): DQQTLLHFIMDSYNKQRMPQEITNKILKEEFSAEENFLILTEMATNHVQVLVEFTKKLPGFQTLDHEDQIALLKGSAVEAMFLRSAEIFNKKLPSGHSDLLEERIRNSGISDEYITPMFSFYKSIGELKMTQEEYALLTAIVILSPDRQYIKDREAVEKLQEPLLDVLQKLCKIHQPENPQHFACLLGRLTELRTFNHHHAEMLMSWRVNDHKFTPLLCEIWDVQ
The series is described as follows: FXR antagonist screening by TR-FRET (LanthaScreen TR-FRET FXR co-activation assay kit). Particulars: TR-FRET with CDCA, geometric means of at least two independent runs. Type of series: biochemical. The method, boiled down: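 FXR-LBD (20 nM working solution) mixed with compound, CDCA (200 μM working solution) as agonist, Fluorescein-SRC2-2 and Tb-anti-GST antibody in Coregulator buffer G; 10 h at room temperature. Coactivator recruitment read by TR-FRET, triplicate wells.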

The mark [1] stands for this setting: Table 1.1, FXR antagonistic activity.

In turn, `Cc1c(C(=O)O)oc2ccc(S(=O)(=O)N(CCc3ccccc3)Cc3ccc(Cl)cc3)cc12` [Example F27-S29, 3-methyl-5-(N-(4-chlorobenzyl)-N-phenethylsulfamoyl)benzofuran-2-carboxylic acid] gave a melting point of 172 to 173 °C. Besides, on FXR (setting [1]), the IC50 fell in the range of 10 to 50 µM.

`Cc1c(C(=O)O)oc2ccc(S(=O)(=O)N(CCc3ccccc3)Cc3ccccc3N3CC[N+](C)(C)CC3)cc12` [Example F27-S99, 4-(2-(((2-carboxy-3-methyl-N-phenethylbenzofuran)-5-sulfonamido)methyl)phenyl)-1,1-dimethylpiperazin-1-ium]: the melting point was 143 to 144 °C. Moreover, at FXR (setting [1]), the IC50 is 50 to 100 µM. Turning to `Cc1c(C(=O)O)oc2ccc(S(=O)(=O)N(CCc3ccccc3)Cc3ccc(Br)cc3C(F)(F)F)cc12` [Example F27-S59, 3-methyl-5-(N-(2-(trifluoromethyl)-4-bromobenzyl)-N-phenethylsulfamoyl)benzofuran-2-carboxylic acid], the melting point lay in the range of 150 to 151 °C. In addition, the IC50 against FXR (setting [1]) lay within 50 to 100 µM. As to `Cc1c(C(=O)O)oc2ccc(S(=O)(=O)N(CCc3ccccc3)Cc3ccccc3N3CCN(C(=O)CC(C)(C)C)CC3)cc12` [Example F27-S103], the melting point was 190 to 191 °C. The same compound gave an IC50 on FXR (setting [1]) of 10 to 50 µM. `Cc1c(C(=O)O)oc2ccc(S(=O)(=O)N(CCc3ccccc3)Cc3ccc(/C=C/C(=O)O)cc3)cc12` [Example F27-S42, (E)-3-methyl-5-(N-(4-(2-carboxyvinyl)benzyl)-N-phenethylsulfamoyl)benzofuran-2-carboxylic acid] yielded a melting point of 270 to 271 °C. Besides, at FXR (setting [1]), the IC50 is 50 to 100 µM. For `Cc1c(C(=O)O)oc2ccc(S(=O)(=O)N(CCc3ccccc3)Cc3ccc(Br)cc3F)cc12` [Example F27-S53, 3-methyl-5-(N-(2-fluoro-4-bromobenzyl)-N-phenethylsulfamoyl)benzofuran-2-carboxylic acid], the melting point is > 380 °C (dec.). The same compound showed an IC50 on FXR (setting [1]) of 10 to 50 µM. For the compound `Cc1c(C(=O)O)oc2ccc(S(=O)(=O)N(CCc3ccccc3)c3ccc(N4CCN(C(=O)OC(C)(C)C)CC4)nc3)cc12` [Example F27-S75, 3-methyl-5-(N-(6-(4-(tert-butoxycarbonyl)piperazin-1-yl)pyridin-3-yl)-N-phenethylsulfamoyl)benzofuran-2-carboxylic acid], the melting point was > 380 °C (dec.). At FXR (setting [1]), the IC50 was 10 to 50 µM. `Cc1c(C(=O)O)oc2ccc(S(=O)(=O)N(CCc3ccccc3)Cc3ccc(F)cc3Cl)cc12` [Example F27-S56, 3-methyl-5-(N-(2-chloro-4-fluorobenzyl)-N-phenethylsulfamoyl)benzofuran-2-carboxylic acid] yielded a melting point of 145 to 146 °C. At FXR (setting [1]), the IC50 was in the range of 10 to 50 µM.

On to `Cc1c(C(=O)O)oc2ccc(S(=O)(=O)N(CCc3ccccc3)c3ccc(N4CCOCC4)cc3)cc12` [Example F27-S63, 3-methyl-5-(N-(4-morpholinophenyl)-N-phenethylsulfamoyl)benzofuran-2-carboxyli acid], for which the melting point was > 380 °C (dec.). On FXR (setting [1]), the IC50 lay in the range of 50 to 100 µM.

Consider `CC(=O)c1ccc(CN(CCc2ccccc2)S(=O)(=O)c2ccc3oc(C(=O)O)c(C)c3c2)cc1` [Example F27-S38, 3-methyl-5-(N-(4-acetylbenzyl)-N-phenethylsulfamoyl)benzofuran-2-carboxylic acid], for which the melting point was > 380 °C (dec.). The compound further gave an IC50 against FXR (setting [1]) of 50 to 100 µM. `Cc1c(C(=O)O)oc2ccc(S(=O)(=O)N(CCc3ccccc3)c3ccc(N4CCN(C)CC4)cc3)cc12` [Example F27-S64, 3-methyl-5-(N-(4-(4-methylpiperazin-1-yl)phenyl)-N-phenethylsulfamoyl)benzofuran-2-carboxylic acid] had a melting point of 152 to 153 °C. Besides, the IC50 against FXR (setting [1]) lay within 50 to 100 µM. For `Cc1c(C(=O)O)oc2ccc(S(=O)(=O)N(CCc3ccccc3)Cc3ccccc3N3CCN(Cc4ccccc4)CC3)cc12` [Example F27-S104, 3-methyl-5-(N-(2-(4-benzylpiperazin-1-yl)benzyl)-N-phenethylsulfamoyl)benzofuran-2-carboxylic acid] the same measures were 154 to 155 °C and 50 to 100 µM.

Regarding `Cc1c(C(=O)O)oc2ccc(S(=O)(=O)N(CCc3ccccc3)Cc3ccccc3Br)cc12` [Example F27-S16, 3-methyl-5-(N-(2-bromobenzyl)-N-phenethylsulfamoyl)benzofuran-2-carboxylic acid], the melting point was 170 to 171 °C. In addition, the IC50 against FXR (setting [1]) lay within 10 to 50 µM. In the same order, the values of `Cc1c(C(=O)O)oc2ccc(S(=O)(=O)N(CCc3ccccc3)c3ccccc3N3CCN(C(=O)CC(C)(C)C)CC3)cc12` [Example F27-S94] are 191 to 192 °C and 0.1 to 10 µM. In the case of `Cc1c(C(=O)O)oc2ccc(S(=O)(=O)N(CCc3ccccc3)Cc3ccccc3Cl)cc12` [Example F27-S15, 3-methyl-5-(N-(2-chlorobenzyl)-N-phenethylsulfamoyl)benzofuran-2-carboxylic acid], the melting point is 156 to 157 °C. The same compound registered an IC50 against FXR (setting [1]) of 10 to 50 µM. Consider `Cc1c(C(=O)O)oc2ccc(S(=O)(=O)N(CCc3ccccc3)Cc3c(F)cc(Cl)cc3F)cc12` [Example F27-S62, 3-methyl-5-(N-(2,6-difluoro-4-chlorobenzyl)-N-phenethylsulfamoyl)benzofuran-2-carboxylic acid], for which the melting point was > 380 °C (dec.). Besides, the IC50 on FXR (setting [1]) was 10 to 50 µM. The compound `CC(=O)N1CCN(c2ccccc2CN(CCc2ccccc2)S(=O)(=O)c2ccc3oc(C(=O)O)c(C)c3c2)CC1` [Example F27-S100, 3-methyl-5-(N-(2-(4-acetylpiperazin-1-yl)benzyl)-N-phenethylsulfamoyl)benzofuran-2-carboxylic acid] registered a melting point of 236 to 237 °C. Also, on FXR (setting [1]), the IC50 was in the range of 10 to 50 µM. For `Cc1ccc(CN(CCc2ccccc2)S(=O)(=O)c2ccc3oc(C(=O)O)c(C)c3c2)cc1` [Example F27-S31, 3-methyl-5-(N-(4-methylbenzyl)-N-phenethylsulfamoyl)benzofuran-2-carboxylic acid] the same measures were > 380 °C (dec.) and 10 to 50 µM.

Turning to `Cc1c(C(=O)O)oc2ccc(S(=O)(=O)N(CCc3ccccc3)Cc3c(F)cccc3Cl)cc12` [Example F27-S47, 3-methyl-5-(N-(2-fluoro-6-chlorobenzyl)-N-phenethylsulfamoyl)benzofuran-2-carboxylic acid], the melting point was 195 to 196 °C. At FXR (setting [1]), the IC50 fell in the range of 0.1 to 10 µM. `Cc1c(C(=O)O)oc2ccc(S(=O)(=O)N(CCc3ccccc3)Cc3ccc(CC(=O)O)cc3)cc12` [Example F27-S41, 3-methyl-5-(N-(4-(carboxymethyl)benzyl)-N-phenethylsulfamoyl)benzofuran-2-carboxylic acid] yielded a melting point of 182 to 183 °C. At FXR (setting [1]), this compound gave an IC50 of 50 to 100 µM. `Cc1c(C(=O)O)oc2ccc(S(=O)(=O)N(CCc3ccccc3)Cc3ccccc3F)cc12` [Example F27-S14, 3-methyl-5-(N-(2-fluorobenzyl)-N-phenethylsulfamoyl)benzofuran-2-carboxylic acid]: the melting point is > 380 °C (dec.). This compound also displayed an IC50 against FXR (setting [1]) of 0.1 to 10 µM. As for `Cc1c(C(=O)O)oc2ccc(S(=O)(=O)N(CCc3ccccc3)Cc3ccc(C(F)(F)F)cc3C(F)(F)F)cc12` [Example F27-S58, 3-methyl-5-(N-(2,4-bis(trifluoromethyl)benzyl)-N-phenethylsulfamoyl)benzofuran-2-carboxylic acid], the melting point was 155 to 156 °C. At FXR (setting [1]), this compound had an IC50 of 50 to 100 µM.

With `Cc1c(C(=O)O)oc2ccc(S(=O)(=O)N(CCc3ccccc3)Cc3ccc(C(F)(F)F)cc3)cc12` [Example F27-S32, 3-methyl-5-(N-(4-(trifluoromethyl)benzyl)-N-phenethylsulfamoyl)benzofuran-2-carboxylic acid], the melting point was more than 192 °C. Also, at FXR (setting [1]), the IC50 fell in the range of 10 to 50 µM. For `Cc1c(C(=O)O)oc2ccc(S(=O)(=O)N(CCc3ccccc3)Cc3ccc(C(F)(F)F)cc3F)cc12` [Example F27-S55, 3-methyl-5-(N-(2-fluoro-4-(trifluoromethyl)benzyl)-N-phenethylsulfamoyl)benzofuran-2-carboxylic acid] the same measures were 174 to 175 °C and 50 to 100 µM. In the case of `Cc1c(C(=O)O)oc2ccc(S(=O)(=O)N(CCc3ccccc3)c3ccccc3N3CCN(C(=O)OC(C)(C)C)CC3)cc12` [Example F27-S77, 3-methyl-5-(N-(2-(4-(tert-butoxycarbonyl)piperazin-1-yl)phenyl)-N-phenethylsulfamoyl)benzofuran-2-carboxylic acid], the melting point fell in the range of 168 to 169 °C. The compound also showed an IC50 against FXR (setting [1]) of 0.1 to 10 µM. On to `Cc1cc(C)c(C(=O)N2CCN(c3ccccc3N(CCc3ccccc3)S(=O)(=O)c3ccc4oc(C(=O)O)c(C)c4c3)CC2)c(C)c1` [Example F27-S135, 5-(N-(2-(4-(2,4,6-trimethylbenzoyl)piperazin-1-yl)phenyl)-N-phenethylsulfamoyl)3-methylbenzofuran-2-carboxylic acid], for which the IC50 on FXR (Table 1.2, FXR antagonistic activity) was 0.1 to 10 µM. At FXR (setting [1]), `CCOC(=O)c1oc2ccc(S(=O)(=O)N(CCc3ccccc3)CCc3ccccc3)cc2c1C` [Example M8-13, ethyl 3-methyl-5-(N,N-diphenylethylsulfamoyl)benzofuran-2-carboxylate] yielded an IC50 of 50 to 100 µM.
